The test system of this assay is NKT cells. The assay can be described thus: Repeated in vivo NKT cell stimulation, serum IFN-γ by ELISA. Details: species or system C57BL/6 mice. As to conditions: for IFN-γ (serum): 1 μg αGalCer i.v., bled 24 hours after treatment, mean ± SD of three mice. The method, then: Nanoparticle containing 1 μg alpha-galactosylceramide was injected to C57BL6 mice, with non-conjugated nanoparticles as negative control. In parallel, we studied soluble form of alpha-galactosylceramide.
C57/BL6 mice were purchased from the Jackson Laboratory (Bar Arbor, Me.) and housed in M.D. Anderson Cancer Center animal facilities under standard pathogen free conditions abiding institutional guidelines. 6 weeks old C57BL/6 mice were used for all experiments. 3 mice per group were used for each experiment. 1 μg alpha-galactosylceramide, or nanoparticle formulated alpha-galactosylceramide in 200 μL PBS was intravenously injected (through tail vein) to each mouse. Mice were treated every 10 days for 3 times. 200 μL of PBS/1% DMSO was used as control.
Mice were bled at 24 hours after each drug treatment. Serum IFN-γ was measured by ELISA using a kit from BD Biosciences (San Jose, Calif.).

For the compound `CCCCCCCCCCCCCCCCCCCCCCCCCC(=O)N[C@@H](CO[C@H]1O[C@H](CO)[C@H](O)[C@H](O)[C@H]1O)[C@H](O)[C@H](O)CCCCCCCCCCCCCC` [αGalCer, Alpha-galactosylceramide], under “3 treatments every 10 days, i.v.”, the “IFN-γ secretion upon repeated stimulation (anergy of NKT cells)” value was “caused IFN-γ secretion only at the first treatment and failed to induce upon subsequent stimulations”. For the same compound, the “IFN-γ (serum)” value is, setting by setting: (x1 injection) 2601 ± 257 pg/mL; (x2 injection (every 10 days)) 65 ± 2 pg/mL; (x3 injection (every 10 days)) 40 ± 11 pg/mL.

The values are drawn from patent publication US8546371B2, “Nanoparticle formulated glycolipid antigens for immunotherapy” (Board of Regents, The University of Texas System, priority 2009, dated 2013).
